From patent US8030499B2, “1,3-dihydro-2H-indole-2-one compound and pyrrolidine-2-one compound fused with aromatic heterocycle” (Taisho Pharmaceutical Co., Ltd., priority 2005, dated 2011)

Molecular target: T1, human V1b receptor (Homo sapiens, UniProt P47901)
T1 construct: expressed in transfected cells; host or cells: CHO cells
T1 sequence (P47901 1-424): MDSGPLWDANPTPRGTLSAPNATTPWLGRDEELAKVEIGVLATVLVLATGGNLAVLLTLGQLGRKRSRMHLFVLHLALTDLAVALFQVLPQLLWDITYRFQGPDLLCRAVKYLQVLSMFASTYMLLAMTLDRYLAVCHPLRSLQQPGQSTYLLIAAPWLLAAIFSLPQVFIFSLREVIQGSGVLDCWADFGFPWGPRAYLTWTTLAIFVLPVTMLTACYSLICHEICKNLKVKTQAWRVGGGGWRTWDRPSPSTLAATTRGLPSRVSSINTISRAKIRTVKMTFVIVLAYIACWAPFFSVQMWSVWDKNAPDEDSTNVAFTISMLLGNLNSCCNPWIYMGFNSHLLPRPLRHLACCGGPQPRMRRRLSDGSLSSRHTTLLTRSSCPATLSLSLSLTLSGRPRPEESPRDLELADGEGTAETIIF
Experiment: V1b receptor binding assay ([3H](Arg8)-vasopressin, crude membranes of CHO cells)
Conditions: 0.1 μmol/L test drug, V1b receptor binding assay; read-out: Rate of inhibition (V1b: % of inhibition)
Procedure: A summary of the methods is given below.
Each obtained homogenate was centrifuged for 20 minutes at 50,000×g and 4° C., the sediment was resuspended in a 50 mmol/L Tris hydrochloric acid buffer solution (pH7.4, containing 10 mmol/L magnesium chloride and 0.1% bovine serum albumin), which served as a crude membrane preparation. This crude membrane preparation was added with [^3H] (Arg^8) vasopressin (final concentration: 0.1 nmol/L to 0.4 nmol/L), and each test drug (final concentration: 0.1 nmol/L to lμmol/L or 0.01 nmol/L to 0.1 μmol/L) to 22° C. for 90 minutes. After the end of the reaction, the reaction solution was filtrated using a GF/C glass fiber filter, which had been presoaked in 0.3% polyethyleneimine for two hours. After the GF/C glass fiber filter was dried sufficiently, scintillator was added, and the radioactivity on the filter was measured using a liquid scintillation counter. Binding of [^3H] (Arg^8)-vasopressin in the presence of (Arg^8)-vasopressin, in the amounts of 0.1 μmol/L in the V1b receptor binding assay and 5 μmol/L in the V1a and V2 receptor binding assay, were taken as non-specific binding, and the value obtained by subtracting non-specific binding from the total binding in the absence (Arg^8)-vasopressin served as specific binding.
In addition, regarding the V1b receptor binding assay, the value obtained by, subtracting the amount of binding in the presence of 0.1 μmol/L test drug from the total amount of binding, divided by the amount of specific binding, served as the rate of inhibition (% of inhibition) of the test drug at the concentration tested.

Row | SMILES | inhibition at 0.1 µM
1 | COc1ccc(S(=O)(=O)N2C(=O)C(c3cc(C)ccc3OC)(N3C[C@H](O)C[C@H]3C(=O)N(C)C)c3cc(Cl)ccc32)c(OCC(F)(F)F)c1 (single isomer, unassigned) [Example 171] | 95%
2 | COc1ccc(S(=O)(=O)N2C(=O)C(c3cc(CN4CCN(C(=O)OC(C)(C)C)CC4)ccc3OC)(N3C[C@H](O)C[C@H]3C(=O)N(C)C)c3cc(Cl)ccc32)c(OC(F)(F)F)c1 (single isomer, unassigned) [Example 201] | 53%
3 | COC(=O)[C@@H]1C[C@@H](O)CN1C1(c2ccccc2OC)C(=O)N(S(=O)(=O)c2ccc(OC)cc2OC(F)(F)F)c2ccc(Cl)cc21 (single isomer, unassigned) [Example 4] | 102%
4 | COc1ccc(S(=O)(=O)N2C(=O)C(c3cccc(OC)c3OC)(N3C[C@H](O)C[C@H]3C(=O)N(C)C)c3cc(Cl)ccc32)c(OC(F)(F)F)c1 (single isomer, unassigned) [Example 240] | 85%
5 | COc1ccc(S(=O)(=O)N2C(=O)C(c3cc(N(C)C)ccc3OC)(N3C[C@H](O)C[C@H]3C(=O)N(C)C)c3cc(Cl)ccc32)c(OC(F)(F)F)c1 (single isomer, unassigned) [Example 190] | 93%
6 | CCN(C)CCCO[C@@H]1C[C@@H](C(=O)N(C)C)N(C2(c3cc(C)ccc3OC)C(=O)N(S(=O)(=O)c3ccc(OC)cc3OC(F)(F)F)c3ccc(Cl)cc32)C1 (stereo partly drawn) [Example 152, (4R)-1-(5-chloro-3-(2-methoxy-5-methylphenyl)-1-{[4-methoxy-2-(trifluoromethoxy)phenyl]sulfonyl}-2-oxo-2,3-dihydro-1H-indol-3-yl)-4-{3-[ethyl(methyl)amino]propoxy}-N,N-dimethyl-L-prolinamide] | 107%
7 | COc1ccc(S(=O)(=O)N2C(=O)C(c3cc(C)cnc3OC)(N3C[C@H](O)C[C@H]3C(=O)N(C)C)c3cc(Cl)ccc32)c(OCC(F)(F)F)c1 (single isomer, unassigned) [Example 169] | 93%
8 | COc1ccc(S(=O)(=O)N2C(=O)C(c3cc(C(C)C)ccc3OC)(N3C[C@H](O)C[C@H]3C(=O)N(C)C)c3cc(Cl)ccc32)c(OC(F)(F)F)c1 (single isomer, unassigned) [Example 230] | 101%
9 | COc1ccc(S(=O)(=O)N2C(=O)C(c3cc(C)cnc3OC)(N3C[C@H](O)C[C@H]3C(=O)N(C)C)c3cc(Cl)ccc32)c(OC)c1OC (stereo partly drawn) [Example 173, (4R)-1-{5-chloro-3-(2-methoxy-5-methylpyridin-3-yl)-2-oxo-1-[(2,3,4-trimethoxyphenyl)sulfonyl]-2,3-dihydro-1H-indol-3-yl}-4-hydroxy-N,N-dimethyl-L-prolinamide] | 104%
10 | COc1ccc(S(=O)(=O)N2C(=O)C(c3cccc4c3OCO4)(N3C[C@H](O)C[C@H]3C(=O)N(C)C)c3cc(Br)ccc32)c(OC(F)(F)F)c1 (single isomer, unassigned) [Example 92] | 102%
11 | COc1ccc(S(=O)(=O)N2C(=O)C(c3cc(C)ccc3OC)(N3C[C@H](O)C[C@H]3C(=O)N(CCO)CCO)c3cc(Cl)ccc32)c(OC(F)(F)F)c1 (stereo partly drawn) [Example 161, (4R)-1-(5-chloro-3-(2-methoxy-5-methylphenyl)-1-{[4-methoxy-2-(trifluoromethoxy)phenyl]sulfonyl}-2-oxo-2,3-dihydro-1H-indol-3-yl)-4-hydroxy-N,N-bis(2-hydroxyethyl)-L-prolinamide] | 78%
12 | COc1ccc(S(=O)(=O)N2C(=O)C(c3cc(OC)ccc3OC)(N3C[C@H](O)C[C@H]3C(=O)N(C)C)c3cc(Cl)ccc32)c(OC(F)(F)F)c1 (single isomer, unassigned) [Example 102] | 102%
13 | COc1ccc(S(=O)(=O)N2C(=O)C(c3cccc4c3OCC4)(N3C[C@H](O)C[C@H]3C(=O)N(C)C)c3cc(Cl)ccc32)c(OC(F)(F)F)c1 (single isomer, unassigned) [Example 89] | 104%
14 | COc1ccc(S(=O)(=O)N2C(=O)C(N[C@@H](Cc3ccc(O)cc3)C(=O)N(C)C)(c3ccccc3OC)c3cc(Cl)ccc32)c(OC(F)(F)F)c1 (single isomer, unassigned) [Example 86] | 86%
15 | COC(=O)[C@H](C)OC1(c2ccccc2OC)C(=O)N(S(=O)(=O)c2ccc(OC)cc2OC(F)(F)F)c2ccc(Cl)cc21 (stereo partly drawn) [Example 80, Methyl (2S)-2-[(5-chloro-3-(2-methoxyphenyl)-1-{[4-methoxy-2-(trifluoromethoxy)phenyl]sulfonyl}-2-oxo-2,3-dihydro-1H-indol-3-yl)oxy]propanoate] | 69%

Now from value to compound:

Row | inhibition at 0.1 µM | SMILES
16 | 72% | COc1ccc(S(=O)(=O)N2C(=O)C(N[C@@H](Cc3ccncc3)C(=O)N(C)C)(c3ccccc3OC)c3cc(Cl)ccc32)c(OC(F)(F)F)c1 (single isomer, unassigned) [Example 83]
17 | 89% | COc1ccc(S(=O)(=O)N2C(=O)C(c3cc(C)ccc3OC)(N3C[C@H](OCC(O)CO)C[C@H]3C(=O)N(C)C)c3cc(Cl)ccc32)c(OC(F)(F)F)c1 (stereo partly drawn) [Example 150, (4R)-1-(5-chloro-3-(2-methoxy-5-methylphenyl)-1-{[4-methoxy-2-(trifluoromethoxy)phenyl]sulfonyl}-2-oxo-2,3-dihydro-1H-indol-3-yl)-4-(2,3-dihydroxypropoxy)-N,N-dimethyl-L-prolinamide]
18 | 55% | COc1ccc(S(=O)(=O)N2C(=O)C(c3cc(C)ccc3OC)(N3CCN(c4ccncc4)CC3C(=O)N(C)C)c3cc(Cl)ccc32)c(OC(F)(F)F)c1 (stereo not drawn) [Example 112, 1-(5-chloro-3-(2-methoxy-5-methylphenyl)-1-{[4-methoxy-2-(trifluoromethoxy)phenyl]sulfonyl}-2-oxo-2,3-dihydro-1H-indol-3-yl)-N,N-dimethyl-4-pyridin-4-yl piperazine-2-carboxamide]
19 | 95% | COc1ccc(S(=O)(=O)N2C(=O)C(c3ccccc3C)(N3C[C@H](O)C[C@H]3C(=O)N(C)C)c3cc(Br)ccc32)c(OC(F)(F)F)c1 (single isomer, unassigned) [Example 105]
20 | 87% | COc1ccc(S(=O)(=O)N2C(=O)C(c3cc(CO)ccc3OC)(N3C[C@H](O)C[C@H]3C(=O)N(C)C)c3cc(Cl)ccc32)c(OC(F)(F)F)c1 (single isomer, unassigned) [Example 203]
21 | 100% | COc1ccc(S(=O)(=O)N2C(=O)C(c3cc(C)ccc3OC)(N3C[C@H](OCCCN4CCN(C)CC4)C[C@H]3C(=O)N(C)C)c3cc(Cl)ccc32)c(OC(F)(F)F)c1 (stereo partly drawn) [Example 154, (4R)-1-(5-chloro-3-(2-methoxy-5-methylphenyl)-1-{[4-methoxy-2-(trifluoromethoxy)phenyl]sulfonyl}-2-oxo-2,3-dihydro-1H-indol-3-yl)-N,N-dimethyl-4-[3-(4-methylpiperazin-1-yl)propoxy]-L-prolinamide]
22 | 102% | COc1ccc(S(=O)(=O)N2C(=O)C(c3cccc4c3OCO4)(N3C[C@H](O)C[C@H]3C(=O)N(C)C)c3cc(C)ccc32)c(OC(F)(F)F)c1 (single isomer, unassigned) [Example 107]
23 | 77% | COc1ccc(S(=O)(=O)N2C(=O)C(NCC(=O)N3CCN(c4ccncc4)CC3)(c3ccccc3OC)c3cc(Cl)ccc32)c(OC(F)(F)F)c1 (stereo not drawn) [Example 58, 5-chloro-3-(2-methoxyphenyl)-1-{[4-methoxy-2-(trifluoromethoxy)phenyl]sulfonyl}-3-{[2-oxo-2-(4-pyridin-4-ylpiperazin-1-yl)ethyl]amino}-1,3-dihydro-2H-indol-2-one]
24 | 92% | COC(=O)[C@@H]1C[C@@H](O)CN1C1(c2cc(C)ccc2OC)C(=O)N(S(=O)(=O)c2ccc(OC)cc2OC(F)(F)F)c2ccc(Cl)cc21 (single isomer, unassigned) [Example 135]
25 | 102% | COc1ccc(S(=O)(=O)N2C(=O)C(c3cc(CCN(C)C)ccc3OC)(N3C[C@H](O)C[C@H]3C(=O)N(C)C)c3cc(Cl)ccc32)c(OC(F)(F)F)c1 (stereo partly drawn) [Example 221, (4R)-1-(5-chloro-3-{5-[2-(dimethylamino)ethyl]-2-methoxyphenyl}-1-{[4-methoxy-2-(trifluoromethoxy)phenyl]sulfonyl}-2-oxo-2,3-dihydro-1H-indol-3-yl)-4-hydroxy-N,N-dimethyl-L-prolinamide]
26 | 94% | C=Cc1ccccc1C1(N2C[C@H](O)C[C@H]2C(=O)N(C)C)C(=O)N(S(=O)(=O)c2ccc(OC)cc2OC(F)(F)F)c2ccc(Cl)cc21 (single isomer, unassigned) [Example 104]
27 | 96% | COc1ccc(S(=O)(=O)N2C(=O)C(c3ccccc3OC)(N3C[C@H](F)C[C@H]3C(=O)N(C)C)c3cc(Cl)ccc32)c(OC(F)(F)F)c1 (single isomer, unassigned) [Example 7]
